Results published in US20200369728A1, “PEPTIDOMIMETIC MACROCYCLES AND USES THEREOF” (Aileron Therapeutics, Inc., priority 2015, published 2020).
Entries after “also recorded” stand apart in the source; their conditions may differ. Where two headings read alike, the source gives them in different places.

Legend:
primary AML cell line [1] = assay: Apoptosis assay on primary AML cell lines; format: cell-based; conditions: primary AML cells, 1.0, 5.0 or 10.0 μM
Protocol: (§1) Cells were probed with DAPI and a FITC-labeled anti-Annexin-V antibody. FACS analysis was performed to determine the number of viable cells and the number of cells in early apoptosis, late apoptosis and undergoing necrosis and the results were plotted.

p53-pathway [2] = assay: mRNA expression of p21, MDM2, Puma, Bax, Gadd45a in Molm13 and Oci/AML3; format: cell-based; conditions: Molm13 and Oci/AML3, 0.1-10.0 μM
From the text: Expression levels were normalized to GAPDH mRNA expression levels.

DOHH-2 = assay: WST-1 / MTT cell viability, DOHH-2; format: cell-based, human
Protocol: Initially, various DOHH-2 cell numbers were plated and evaluated 3-7 days later to determine the optimal number of cells to be plated and treatment duration.
(§2) A drug combination index plot was used to assess the synergistic, additive, or antagonistic properties of each combination treatment. […] Combination index (CI) values were calculated using the CompuSyn software. The data were expressed as log(CI).

[3] = test system: Molm13, OCI/AML3, Molm14, HL60 and ML2 cell lines; assay: Apoptosis assay of AML cell lines (DAPI / Annexin-V FACS); format: cell-based; conditions: p53 wild type AML cell lines, 1.0, 5.0 or 10.0 μM
Protocol: as §1

MCF-7 = assay: CyQUANT cell viability, MCF-7; format: cell-based, human; conditions: MCF-7, sequential treatment, 72 hrs
Protocol: Cells were also evaluated for viability using the CyQUANT method after beginning treatment (FIGS. 78A and 79A). Cells were evaluated for viability using the CyQUANT method after beginning the simultaneous treatments (FIGS. 78B and 79B). […] The data were expressed as log(CI).
The anticancer activity of the combination treatment was assessed based on the order of addition of the drugs.

p53-pathway [4] = assay: Western blot of p53-pathway, primary AML cells; format: cell-based; conditions: 1.0 or 5.0 μM
From the text: (§3) Lysates were subjected to SDS-PAGE and probed by Western blotting with antibodies specific to MDM2, p53, p21, and β-Actin.

p53-pathway [5] = assay: Western blot of p53-pathway, Molm13, OCI/AML3, Molm14 and ML2 cell lines; format: cell-based; conditions: Molm13, OCI/AML3, Molm14 and ML2, 1.0 μM
Protocol: The Molm13, OCI/AML3, Molm14 and ML2 cell lines were treated with vehicle or 1.0 μM Aileron peptide (FIG. 1B).

[6] = test system: Molm13, OCI/AML3, Molm14, HL60 and ML2 cell lines; assay: Clonogenicity assay on AML cell lines; format: cell-based; conditions: p53 wild type cell lines, 1.0 μM
Protocol: A clonogenicity assay was then performed and the number of clonies was counted (FIG. 6).

primary AML cell line [7] = assay: Clonogenicity assay on primary AML cell lines; format: cell-based; conditions: 0.1-1.0 μM
Protocol: A clonogenicity assay was then performed and the number of clonies was counted.

MOLT-3 = assay: WST-1 / MTT cell proliferation assay, MOLT-3; format: cell-based, human
Protocol: All media were supplemented with 10% (v/v) fetal calf serum, 100 units penicillin and 100 μg/ml streptomycin at 37° C. and 5% CO2.
One day prior to assaying, cells were trypsinized, counted and seeded at pre-determined densities in 96-well plates as follows: MCF-7, 5000 cells/well/200 μl; MOLT-3, 30,000 cells/well/200 μl. […] The WST-1 variant of the MTT assay was used to measure cell viability according to the manufacturer's protocol. WST-1 is a cell-impermeable, sulfonated tetrazolium salt that can be used to examine cell viability without killing the cells.
Initially, various MOLT-3 cell numbers were plated and evaluated 3-7 days later to determine the optimal number of cells to be plated and treatment duration.
Cells were evaluated for viability by WST-1 assay or MTT assay 3-7 days after beginning the sequential treatment (FIGS. 33 and 34).
Cells were evaluated for viability by WST-1 assay or MTT assay 3-7 days after beginning treatment with rituximab (FIGS. 68B and 69B) or romidepsin (FIGS. 71B and 72B).

A375 = assay: Cell viability, A375 melanoma cell line (single agents and combinations); format: cell-based, human; conditions: for combination effect with PLX4032 (Zelboraf, vemurafenib): B-Raf-mutant melanoma cell line A375
p53 = p53 stabilization in AML cells (Western blot, dose and time); format: cell-based; conditions: AML p53 wild type cell lines, 0.1-10.0 μM, 24, 48 or 72 hrs
From the text: as §3

Mel-Ho (V600E) = assay: Combination with PLX4032 in Mel-Ho; format: cell-based
MV4-11 = assay: WST-1 / MTT cell viability, MV4-11
Protocol: Initially, various MV4-11 cell numbers were plated and evaluated 3-7 days later to determine the optimal number of cells to be plated and treatment duration.
Cells were evaluated for viability by WST-1 assay or MTT assay 3-7 days after beginning treatment.
as §2

[8] = DOHH-2, sequential treatment, 72 hrs
[9] = MV4-11, sequential treatment, 72 hrs

CC(=O)N[C@@H](CC(C)C)C(=O)N[C@H](C(=O)N[C@@H](Cc1ccccc1)C(=O)N[C@]1(C)CCCCCCC=CCCC[C@@](C)(C(=O)N[C@@H](C)C(=O)N[C@@H](C)C(=O)N[C@@H](C)C(=O)N[C@@H](C)C(=O)N[C@@H](C)C(=O)N[C@H](C)C(N)=O)NC(=O)[C@H](CC(C)C)NC(=O)[C@H](CCC(N)=O)NC(=O)[C@H](C)NC(=O)[C@H](Cc2c[nH]c3ccccc23)NC(=O)[C@H](Cc2ccc(O)cc2)NC(=O)[C@H](CCC(=O)O)NC1=O)[C@@H](C)O [Aileron peptide 1]
apoptotic cell death (primary AML cell line [1]): induces apoptotic cell death
activation of the p53-pathway (mRNA normalized to GAPDH) (p53-pathway [2]): activates the p53-pathway
combination effect of AP1 with rituximab (DOHH-2; DOHH-2 (figure legends), listed as AP1): complementary in vitro anticancer activity; also recorded: additive or better complimentarity
order of addition: effect on cell growth, AP1 and CTX (DOHH-2; [8]): suppressed DOHH-2 cell growth with or without CTX
order of addition: effect on cell growth, AP1 and VCR (DOHH-2; [8]): suppressed DOHH-2 cell growth with or without VCR
combination effect of AP1 with CTX (DOHH-2; DOHH-2, listed as AP1): complementary in vitro anticancer activity; also recorded: synergistic; also recorded: additive or better complimentarity
combination effect of AP1 with VCR (DOHH-2; DOHH-2, listed as AP1): complementary in vitro anticancer activity; also recorded: mostly synergistic; also recorded: additive or better complimentarity
EC50 (DOHH-2; single agent, read-out: EC50 on DOHH-2 cells): 0.06 µM
apoptotic cell death [3]: induces apoptotic cell death
order of addition: effect on cell growth, AP1 and palbociclib (MCF-7): suppressed MCF-7 cell growth with or without palbociclib
activation of the p53-pathway (p53-pathway [4]): activates the p53-pathway
activation of the p53-pathway (p53-pathway [5]): activates the p53-pathway
clonogenic capacity [6]: inhibited their clonogenic capacity
clonogenic capacity (primary AML cell line [7]): inhibited its clonogenic capacity to a higher extent
combination effect of AP1 with romidepsin (MOLT-3): enhances Aileron peptide 1 inhibition of cancer cell proliferation and cell killing
combination effect of AP1 with romidepsin (MOLT-3; listed as AP1): complementary in vitro anticancer activity; also recorded: mostly additive complimentarity
combination effect with PLX4032 (Zelboraf, vemurafenib) (A375): synergy
combination effect with PLX4032 (Zelboraf, vemurafenib) (A375; listed as AP1): additive or better complimentarity
EC50 (A375; single agent, read-out: EC50 on A375 cells): 0.07 µM
p53 stabilization (p53): stabilizes p53 in a time and dose dependant manner
combination effect with PLX4032 (Zelboraf) (Mel-Ho (V600E)): synergy
order of addition: effect on cell growth, AP1 and Ara-C (MV4-11; [9]): suppressed MV4-11 cell growth with or without Ara-C
order of addition: effect on cell growth, AP1 and azacitidine (MV4-11; [9]): suppressed MV4-11 cell growth with or without azacitidine
order of addition: effect on cell growth, AP1 and decitabine (MV4-11; [9]): suppressed MV4-11 cell growth with or without decitabine
order of addition: effect on cell growth, AP1 and midostaurin (MV4-11; [9]): suppressed MV4-11 cell growth with or without midostaurin
combination effect of AP1 with Ara-C (MV4-11; MV4-11, listed as AP1): complementary in vitro anticancer activity; also recorded: mostly additive with some degree of synergy; also recorded: additive or better complimentarity
combination effect of AP1 with azacitidine (MV4-11; MV4-11, listed as AP1): complementary in vitro anticancer activity; also recorded: mostly additive with some synergy; also recorded: additive or better complimentarity
combination effect of AP1 with decitabine (MV4-11; MV4-11, listed as AP1): complementary in vitro anticancer activity; also recorded: mostly additive; also recorded: additive or better complimentarity
combination effect of AP1 with midostaurin (MV4-11; MV4-11, listed as AP1): complementary in vitro anticancer activity; also recorded: mostly synergistic; also recorded: additive or better complimentarity
